The target of test [1] is T1, K12 tau (first-generation AD-brain-seeded K12 fibrils) (Homo sapiens, UniProt P10636, C639A).
T1 construct: gene MAPT; 3R fragment; E. coli; amyloid fibrils seeded with Alzheimer's disease brain homogenate, heparin-free
Description: ThT seeded aggregation kinetics ([…]/t1/[…]). Type of test: biochemical. As to conditions: read-out: KIC50; 5 μM K12 monomer seeded with 50 nM first-generation AD-derived K12 seeds; 250 mM Na3citrate, 10 mM HEPES pH 7.4; 1% DMSO; quiescent; inhibition of fibril formation.

Test [2] has as its target T1, K12 tau (first-generation AD-brain-seeded K12 fibrils). As to the kind of experiment: fluorescence polarization with K12 fibrils. The note with it: 10 μM compound; AD-seeded K12 fibrils (monomer equivalents); 250 mM Na3citrate, 10 mM HEPES pH 7.4; 1% DMSO; room temperature; one-step binding fit. On the technique in general: Polarisation of emitted light reports the rotation of a fluorescent probe.

T1 sequence (P10636 561-717 C639A): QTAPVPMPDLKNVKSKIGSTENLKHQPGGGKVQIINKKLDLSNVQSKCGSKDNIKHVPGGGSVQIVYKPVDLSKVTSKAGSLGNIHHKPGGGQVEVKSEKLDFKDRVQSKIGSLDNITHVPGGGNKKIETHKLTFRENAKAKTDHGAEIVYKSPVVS

Regarding `Cc1noc(C2CCN(C(=O)CCCc3ccccc3)CC2)n1` [I1.51], the IC50 in test [1] is 7.4 ± 5 µM. Further, in test [2], the Kd – broadly, the free concentration of one partner at which half of the binding sites on the other are occupied at equilibrium, for simple one-to-one binding – was 0.74 ± 0.28 µM.
On to `Cc1noc(C2CCN(C(=O)CNC(=O)c3ccccc3)C2)n1` (stereo not shown) [I1.21], for which the IC50 in test [1] came out at 2.6 ± 0.5 µM. In test [2], the dissociation constant Kd worked out at 1.58 ± 0.15 µM.
